Data as given in patent US20210112813A1, “HERBICIDAL COMPOSITION AND USE THEREOF” (NANTONG JIANGSHAN AGROCHEMICAL & CHEMICALS CO., LTD., priority 2019, published 2021).

Legend:
Assay type in all cases: in vivo
Bristlegrass [1] = experiment: Greenhouse pot test, pre-emergence soil treatment, visual control effect 30 days after treatment, Gowing method
Method: (§1) In the present application, indoor combined action of the compound of herbicide active component A and B on weeds was measured to determine the combined effect of the composition on weeds, wherein the structure of the active component A was as follows:
(§2) The weed cultivation method was as follows: quantitative weed seeds abutilon and bristlegrass were respectively sown in a paper cup filled with nutrient soil with a diameter of 7 cm, and then cultivated in the greenhouse after covering the soil, suppressing and watering. The post-emergence stem and leaf treatment was performed when the grass weeds grew to 5-7 leaf stage, broad-leaved weeds grew to 6-8 leaf stage; the pre-emergence soil treatment was performed the second day after sowing, and the early post-emergence treatment was performed after sowing and before emergence; the experiment was repeated 3 times. After the treatment and drug solution naturally dried, the weeds were placed in the greenhouse to be managed according to conventional methods. According to the suppression or death of the weeds, a visual control effect investigation was conducted 30 days after the treatment. The application adopted the Gowing method to evaluate the combined effect of the proposed composition.
(§3) X—Weed control effect when the amount of herbicide component A is P;
(§4) Y—Weed control effect when the amount of herbicide component B is Q;
(§5) E0—Theoretical control effect when the amount of herbicide component A is […];
(§6) E—The measured control effect after the herbicide component A and the herbicide component B are mixed according to the above ratio.
(§7) When E−E0>10%, it is synergism; when E−E0<−10%, it is antagonism; when E−E0 value is between ±10%, it is addition.

Lambsquarters [2] = experiment: as above
Amaranthusretroflexus [3] = experiment: Field plot test, non-cultivated weeds, pre-emergence soil treatment; conditions: Table 8, dose 600 ga.i./hm^2
Method: (§8) The present application also conducted a medicinal efficacy test on weeds on the formulation examples containing herbicide active component A and active component B by the field plot test method, and clarified the control effect of the composition on non-cultivated weeds.
(§9) According to the different components of different formulation examples, pre-emergence soil treatment, early post-emergence and post-emergence stem and leaf spray treatment were carried out respectively. The spraying device was Singapore Linong HD400 hand-operating knapsack sprayer (No. H17001), working pressure: […], spray rate: 640 mL/min, adjustable cone spraying nozzle (325787), spraying nozzle height: 0.5 m, spray width: 0.85 m, walking speed: about 16.7 m/min, and spray volume: […];

Bristlegrass [4] = experiment: as above; conditions: Table 8, dose 600 ga.i./hm^2
Method: as §8, §9

Crabgrass = experiment: as above; conditions: Table 8, dose 600 ga.i./hm^2
Method: as §8, §9

Lambsquarters [5] = experiment: as above; conditions: Table 8, dose 600 ga.i./hm^2
Method: as §8, §9

Bristlegrass [6] = experiment: Greenhouse pot test (treatment timing not given, Tables 6 and 7), visual control effect, Gowing method
Method: as §1, §2, §3, §4, §5, §6, §7

Abutilon [7] = experiment: Greenhouse pot test (treatment timing not given, Table 6), visual control effect, Gowing method
Method: as §1, §2, §3, §4, §5, §6, §7

Abutilon [8] = experiment: Field plot test, non-cultivated weeds, post-emergence stem and leaf spray; conditions: Table 10, dose 100 ga.i./hm^2
Method: as §8, §9

Amaranthusretroflexus [9] = experiment: as above; conditions: Table 10, dose 100 ga.i./hm^2
Method: as §8, §9

Bristlegrass [10] = experiment: as above; conditions: Table 10, dose 100 ga.i./hm^2
Method: as §8, §9

Echinochloacrusgalli [11] = experiment: as above; conditions: Table 10, dose 100 ga.i./hm^2
Method: as §8, §9

Abutilon [12] = experiment: Greenhouse pot test, pre-emergence soil treatment, visual control effect 30 days after treatment, Gowing method
Method: as §1, §2, §3, §4, §5, §6, §7

Abutilon [13] = experiment: Greenhouse pot test, post-emergence stem and leaf treatment, visual control effect 30 days after treatment, Gowing method
Method: as §1, §2, §3, §4, §5, §6, §7

Bristlegrass [14] = experiment: as above
Method: as §1, §2, §3, §4, §5, §6, §7

Abutilon [15] = experiment: Field plot test, non-cultivated weeds, early post-emergence
Method: as §8, §9

Amaranthusretroflexus [16] = experiment: as above
Method: as §8, §9

Bristlegrass [17] = experiment: as above
Method: as §8, §9

Echinochloacrusgalli [18] = experiment: as above
Method: as §8, §9

Amaranthusretroflexus [19] = experiment: Greenhouse pot test (treatment timing not given, Table 7), visual control effect, Gowing method

## COC[C@H](C)N(C(=O)CCl)c1c(C)csc1C [Dimethoxamid-P]
Bristlegrass [1]; Table 1, dose 75 ga.i./hm^2
  Measured value E: 30%
Bristlegrass [1]; Table 1, dose 150 ga.i./hm^2
  Measured value E: 55%
Lambsquarters [2]; Table 1, dose 75 ga.i./hm^2
  Measured value E: 35%
Lambsquarters [2]; Table 1, dose 150 ga.i./hm^2
  Measured value E: 50%
Amaranthusretroflexus [3]
  Control effect, Amaranthusretroflexus: 80
Bristlegrass [4]
  Control effect, Bristlegrass: 55
Crabgrass
  Control effect, Crabgrass: 70
Lambsquarters [5]
  Control effect, Lambsquarters: 75

## COCC(C)N(C(=O)CCl)c1c(C)csc1C (stereo not shown) [Dimethoxamide]
Bristlegrass [1]; Table 1, dose 75 ga.i./hm^2
  Measured value E: 25%
Bristlegrass [1]; Table 1, dose 150 ga.i./hm^2
  Measured value E: 40%
Lambsquarters [2]; Table 1, dose 75 ga.i./hm^2
  Measured value E: 20%
Lambsquarters [2]; Table 1, dose 150 ga.i./hm^2
  Measured value E: 35%
Amaranthusretroflexus [3]
  Control effect, Amaranthusretroflexus: 55
Bristlegrass [4]
  Control effect, Bristlegrass: 50
Crabgrass
  Control effect, Crabgrass: 70
Lambsquarters [5]
  Control effect, Lambsquarters: 70

## CCc1cccc(C)c1N(C(=O)CCl)[C@@H](C)COC [S-metolachlor]
Bristlegrass [1]; Table 2, dose 90 ga.i./hm^2
  Measured value E: 35%
Bristlegrass [1]; Table 2, dose 135 ga.i./hm^2
  Measured value E: 60%
Lambsquarters [2]; Table 2, dose 90 ga.i./hm^2
  Measured value E: 45%
Lambsquarters [2]; Table 2, dose 135 ga.i./hm^2
  Measured value E: 65%
Amaranthusretroflexus [3]
  Control effect, Amaranthusretroflexus: 75
Bristlegrass [4]
  Control effect, Bristlegrass: 60
Crabgrass
  Control effect, Crabgrass: 70
Lambsquarters [5]
  Control effect, Lambsquarters: 50

## CP(=O)(O)CCC(N)C(=O)O (stereo not shown) [Glufosinate-ammonium]
Bristlegrass [6]; Table 6, dose 30 ga.i./hm^2
  Measured value E: 30%
Bristlegrass [6]; Table 6, dose 120 ga.i./hm^2
  Measured value E: 55%
Abutilon [7]; dose 30 ga.i./hm^2
  Measured value E: 40%
Abutilon [7]; dose 120 ga.i./hm^2
  Measured value E: 60%
Abutilon [8]
  Control effect, Abutilon: 65
Amaranthusretroflexus [9]
  Control effect, Amaranthusretroflexus: 70
Bristlegrass [10]
  Control effect, Bristlegrass: 50
Echinochloacrusgalli [11]
  Control effect, Echinochloacrusgalli: 60

## CCc1cnc(C2=NC(C)(C(C)C)C(=O)N2)c(C(=O)O)c1 (stereo not shown) [Imazethapyr]
Abutilon [12]; Table 4, dose 45 ga.i./hm^2
  Measured value E: 5%
Abutilon [12]; Table 4, dose 90 ga.i./hm^2
  Measured value E: 25%
Bristlegrass [1]; Table 4, dose 45 ga.i./hm^2
  Measured value E: 30%
Bristlegrass [1]; Table 4, dose 90 ga.i./hm^2
  Measured value E: 45%
Abutilon [13]; Table 5, dose 22.5 ga.i./hm^2
  Measured value E: 10%
Abutilon [13]; Table 5, dose 45 ga.i./hm^2
  Measured value E: 20%
Bristlegrass [14]; Table 5, dose 22.5 ga.i./hm^2
  Measured value E: 45%
Bristlegrass [14]; Table 5, dose 45 ga.i./hm^2
  Measured value E: 50%
Abutilon [15]; Table 9, dose 100 ga.i./hm^2
  Control effect, Abutilon: 45
Amaranthusretroflexus [16]; Table 9, dose 100 ga.i./hm^2
  Control effect, Amaranthusretroflexus: 70
Bristlegrass [17]; Table 9, dose 100 ga.i./hm^2
  Control effect, Bristlegrass: 50
Echinochloacrusgalli [18]; Table 9, dose 100 ga.i./hm^2
  Control effect, Echinochloacrusgalli: 60

## CCOc1cc(Oc2ccc(C(F)(F)F)cc2Cl)ccc1[N+](=O)[O-] [Oxyfluorfen]
Bristlegrass [6]; Table 7, dose 22.5 ga.i./hm^2
  Measured value E: 15%
Bristlegrass [6]; Table 7, dose 45 ga.i./hm^2
  Measured value E: 50%
Amaranthusretroflexus [19]; dose 22.5 ga.i./hm^2
  Measured value E: 30%
Amaranthusretroflexus [19]; dose 45 ga.i./hm^2
  Measured value E: 60%
Abutilon [8]
  Control effect, Abutilon: 80
Amaranthusretroflexus [9]
  Control effect, Amaranthusretroflexus: 80
Bristlegrass [10]
  Control effect, Bristlegrass: 65
Echinochloacrusgalli [11]
  Control effect, Echinochloacrusgalli: 85

## Acetofluran
Bristlegrass [6]; Table 7, dose 60 ga.i./hm^2
  Measured value E: 5%
Bristlegrass [6]; Table 7, dose 90 ga.i./hm^2
  Measured value E: 30%
Amaranthusretroflexus [19]; dose 60 ga.i./hm^2
  Measured value E: 35%
Amaranthusretroflexus [19]; dose 90 ga.i./hm^2
  Measured value E: 55%
Abutilon [8]
  Control effect, Abutilon: 75
Amaranthusretroflexus [9]
  Control effect, Amaranthusretroflexus: 75
Bristlegrass [10]
  Control effect, Bristlegrass: 55
Echinochloacrusgalli [11]
  Control effect, Echinochloacrusgalli: 70

## Cn1nc(C(F)(F)F)c(CS(=O)(=O)C2=NOC(C)(C)C2)c1OC(F)F [Pyroxasulfone]
Abutilon [12]; Table 4, dose 90 ga.i./hm^2
  Measured value E: 40%
Abutilon [12]; Table 4, dose 180 ga.i./hm^2
  Measured value E: 55%
Bristlegrass [1]; Table 4, dose 90 ga.i./hm^2
  Measured value E: 60%
Bristlegrass [1]; Table 4, dose 180 ga.i./hm^2
  Measured value E: 75%
Abutilon [13]; Table 5, dose 45 ga.i./hm^2
  Measured value E: 50%
Abutilon [13]; Table 5, dose 90 ga.i./hm^2
  Measured value E: 65%
Bristlegrass [14]; Table 5, dose 45 ga.i./hm^2
  Measured value E: 70%
Bristlegrass [14]; Table 5, dose 90 ga.i./hm^2
  Measured value E: 85%
Abutilon [15]; Table 9, dose 200 ga.i./hm^2
  Control effect, Abutilon: 30
Amaranthusretroflexus [16]; Table 9, dose 200 ga.i./hm^2
  Control effect, Amaranthusretroflexus: 60
Bristlegrass [17]; Table 9, dose 200 ga.i./hm^2
  Control effect, Bristlegrass: 35
Echinochloacrusgalli [18]; Table 9, dose 200 ga.i./hm^2
  Control effect, Echinochloacrusgalli: 15

## CP(=O)(O)CC[C@H](N)C(=O)O.N [Glufosinate-P-ammonium]
Bristlegrass [6]; Table 6, dose 30 ga.i./hm^2
  Measured value E: 40%
Bristlegrass [6]; Table 6, dose 120 ga.i./hm^2
  Measured value E: 65%
Abutilon [7]; dose 30 ga.i./hm^2
  Measured value E: 45%
Abutilon [7]; dose 120 ga.i./hm^2
  Measured value E: 65%
Abutilon [8]
  Control effect, Abutilon: 70
Amaranthusretroflexus [9]
  Control effect, Amaranthusretroflexus: 80
Bristlegrass [10]
  Control effect, Bristlegrass: 45
Echinochloacrusgalli [11]
  Control effect, Echinochloacrusgalli: 60

## CCc1cccc(C)c1N(C(=O)CCl)C(C)COC (stereo not shown) [metolachlor]
Bristlegrass [1]; Table 2, dose 90 ga.i./hm^2
  Measured value E: 40%
Bristlegrass [1]; Table 2, dose 135 ga.i./hm^2
  Measured value E: 60%
Lambsquarters [2]; Table 2, dose 90 ga.i./hm^2
  Measured value E: 50%
Lambsquarters [2]; Table 2, dose 135 ga.i./hm^2
  Measured value E: 55%
Amaranthusretroflexus [3]
  Control effect, Amaranthusretroflexus: 60
Bristlegrass [4]
  Control effect, Bristlegrass: 45
Crabgrass
  Control effect, Crabgrass: 60
Lambsquarters [5]
  Control effect, Lambsquarters: 50
